Data taken from PMC7197350, “Targeted chemotherapy overcomes drug resistance in melanoma” (Genes & Development, 2020).
pIC50: −log10 of the molar value.

Legend:
Assay in all cases: cells
Set-up in all cases: growth inhibition of A375 parental and resistant melanoma cells, dose-response curves
Settings in all cases: Homo sapiens, A-375, 96 h; read-out: Phendione IC50
[1] = tested on: A375
Procedure: (§1) Figure 2. Phendione is a small molecule inhibitor targeting PP2A. (A) Immunoblots of A375 cell lysates collected after 3 h of drug treatment as indicated; i.e., increasing concentrations of LB100 compared with 0.2 µM phendione (left) and increasing concentrations of phendione compared with 3 µM pyrene (right). DMSO was used as negative control (vehicle). (B) Growth inhibition curves of A375 cells and IC50 values after treatment with phendione or LB100 for 96 h. Data are presented as mean ± SD of three independent experiments. (C) Phosphatase activity assay for PP2A core enzyme (complex of regulatory subunit Aα and catalytic subunit Cα; top), PP1 catalytic subunit Cα (middle) and PP1 catalytic subunit Cβ (bottom) incubated with phendione or pyrene at indicated concentrations. […] IC50s (micromolar) were calculated and is shown as an inset in each graph. […] (G) Quantification of cell apoptosis measured by Annexin V staining flow cytometry. Parental A375 and A375 BRAFi-resistant cells were treated with vehicle or increasing concentration of phendione as indicated in the panels for 24 h before apoptotic cells were measured by flow cytometry. […] Representative images are shown at the left and quantification results are shown at the right. […] (I,J) Quantification of reactive oxygen species (ROS) production measured by flow cytometry in A375 (I) and A375 BRAFi-resistant (J) cells. […]

[2] = tested on: A375 BRAFi resistant
Procedure: as §1

[3] = tested on: A375 BRAFi + MEKi resistant

Structure (SMILES): O=C1C(=O)c2cccnc2-c2ncccc21 [phendione, 1,10-phenanthroline-5,6-dione]
- pIC50 [1]: 7.03
- pIC50 [2]: 6.95
- pIC50 [3]: 6.92
